Data set [1] in a line: Stability of PAA in compositions and in presence of chelators (PAA test strips). As to conditions: for PAA present immediately after preparation of the solution / time after which no PAA was detectable: chelator plus 0.170 g of 5% PAA in 100 g DI water, PAA test strips. The procedure: A sanitizer composition containing 0.25% SLS, 0.05% LA, 0.125% magnesium sulfate, and 85 ppm PAA was prepared in the 300 ppm total hardness water described in Example 8. This solution was applied to a stainless steel cabinet (34.5 in.×72 in.) in the meat pilot plant with a FOAM-IT® 5 unit using the driest foam setting.
This Example illustrates the effect of chelating agent on sanitizer compositions. The amount of chelator added is intended to chelate a concentration of ions corresponding to 300 ppm hard water, which corresponds to 3 millimolar. Because water will often have a hardness of less than 300 ppm, leaving an excess of chelator, it is important to evaluate the stability of PAA with respect to the chelator. The excess chelator could cause increases in pH, which would decrease the amount of PAA present according to the reaction (Preparation, Properties, Reactions and Uses of Organic Peracids and their Salts, FMC Corporation, Inorganic Chemicals Division, New York, N.Y., 1964, p. 34):
Therefore, in anticipation of the worst case where soft water is used to prepare the solution from which the foam is generated, the stability of PAA in the presence of at least 3 millimolar of chelator was evaluated.
0.125 g of Na4EDTA and 0.170 g of 5% PAA were added to 100 g of DI water.
0.161 g of Na3EDTA and 0.170 g of 5% PAA were added to 100 g of DI water.
0.233 g of Na2EDTA and 0.170 g of 5% PAA were added to 100 g of DI water.

A further data set in a line: pH of solutions. The following applies: chelator solutions in DI water in the absence of PAA, pH test paper. In kind it is physicochemical.
Data set [2] can be described thus: Turbidity of lauryl sulfate solutions in hard water (Example 8). It is filed as physicochemical. The method, then:
When a 0.25% MLS solution was prepared in water containing 333 ppm of calcium chloride, the solution became turbid after about 2 min.
Hard water contains both magnesium and calcium ions. For a 300 ppm total hardness (expressed as calcium carbonate), there is about 200 ppm hardness as calcium and 100 ppm hardness as magnesium (AOAC Official Methods of Analysis, 1995, Chapter 6, p. 10). […] When 0.25% solution of MLS was prepared in 300 ppm total hardness water containing calcium and magnesium ions in this ratio, the solution became turbid after about 5 minutes.

The mark [3] stands for this setting: 0.25% solution in 300 ppm total hardness water containing calcium and magnesium ions.
The mark [4] stands for this setting: 0.25% solution in water containing 333 ppm of calcium chloride.

In the case of `O=C([O-])CN(CCN(CC(=O)[O-])CC(=O)[O-])CCN(CC(=O)[O-])CC(=O)[O-].[Na+].[Na+].[Na+].[Na+].[Na+]` [pentasodium salt of diethylenetriaminepentaacetic acid], the “stability of PAA in the presence of the chelator” value (“stability of PAA” for short) in data set [1] is reported as “not found any chelator in salt form in which PAA is stable”.
The compound `O=C([O-])CN(CCN(CC(=O)[O-])CC(=O)O)CC(=O)O.[Na+].[Na+]` [Na2EDTA] showed a pH in “pH of solutions” of 4. In data set [1], the “PAA present immediately after preparation of the solution” value (“PAA present immediately” below) is listed as “at least 50 ppm” and the “time after which no PAA was detectable” value was around 10 min.
On to “sodium salts of diethylene triamine pentaacetic acid”, for which the “stability of PAA” value in data set [1] is listed as “rapidly decomposes”.
For the compound `CC(O)(P(=O)(O)O)P(=O)(O)O` [DEQUEST® 2010, 1-hydroxyethylidene-1,1-diphosphonic acid], in data set [1], the “stability of PAA” value is reported as “stable”.
In the data set “pH of solutions”, `O=C([O-])CN(CCN(CC(=O)[O-])CC(=O)[O-])CC(=O)[O-].[Na+].[Na+].[Na+].[Na+]` [Na4EDTA] yielded a pH of 10. The “PAA present immediately” value in data set [1] is given as “no PAA present”.
On to `O=C([O-])CN(CCN(CC(=O)[O-])CC(=O)O)CC(=O)[O-].[Na+].[Na+].[Na+]` [Na3EDTA], for which, in the data set “pH of solutions”, the pH came to 7.5. Further, in data set [1], the “PAA present immediately” value is reported as “at least 50 ppm” and the “time after which no PAA was detectable” value is around 5 min.
As for Magnesium lauryl sulfate [MLS], the “time until solution became turbid” value is “about 5 minutes” in data set [2] (setting [3]) and “about 2 min” in data set [2] (setting [4]).
In the case of `O=P([O-])(O)CN(CCN(CCN(CP(=O)(O)O)CP(=O)(O)O)CP(=O)(O)O)CP(=O)(O)O.[Na+]` [DEQUEST 2066], the “stability of PAA” value in data set [1] is “not found any chelator in salt form in which PAA is stable”.
On to `CCCCCCCCCCCCOS(=O)(=O)[O-].[Na+]` [SLS, Sodium lauryl sulfate], for which the “time until solution became turbid” value is given as “immediately became turbid” in data set [2] (setting [3]) and “instantly became turbid” in data set [2] (setting [4]).
